Measured values as given in patent EP4353712A1 (Biodol Therapeutics, priority 2022, dated 2024).
Where a name gives a salt, the structure may show the parent alone.

Biological target: T1, FLT3 (Homo sapiens, UniProt P36888)
T1 construct: expressed in transfected cells; host or cells: HEK293T
T1 sequence (P36888 27-993): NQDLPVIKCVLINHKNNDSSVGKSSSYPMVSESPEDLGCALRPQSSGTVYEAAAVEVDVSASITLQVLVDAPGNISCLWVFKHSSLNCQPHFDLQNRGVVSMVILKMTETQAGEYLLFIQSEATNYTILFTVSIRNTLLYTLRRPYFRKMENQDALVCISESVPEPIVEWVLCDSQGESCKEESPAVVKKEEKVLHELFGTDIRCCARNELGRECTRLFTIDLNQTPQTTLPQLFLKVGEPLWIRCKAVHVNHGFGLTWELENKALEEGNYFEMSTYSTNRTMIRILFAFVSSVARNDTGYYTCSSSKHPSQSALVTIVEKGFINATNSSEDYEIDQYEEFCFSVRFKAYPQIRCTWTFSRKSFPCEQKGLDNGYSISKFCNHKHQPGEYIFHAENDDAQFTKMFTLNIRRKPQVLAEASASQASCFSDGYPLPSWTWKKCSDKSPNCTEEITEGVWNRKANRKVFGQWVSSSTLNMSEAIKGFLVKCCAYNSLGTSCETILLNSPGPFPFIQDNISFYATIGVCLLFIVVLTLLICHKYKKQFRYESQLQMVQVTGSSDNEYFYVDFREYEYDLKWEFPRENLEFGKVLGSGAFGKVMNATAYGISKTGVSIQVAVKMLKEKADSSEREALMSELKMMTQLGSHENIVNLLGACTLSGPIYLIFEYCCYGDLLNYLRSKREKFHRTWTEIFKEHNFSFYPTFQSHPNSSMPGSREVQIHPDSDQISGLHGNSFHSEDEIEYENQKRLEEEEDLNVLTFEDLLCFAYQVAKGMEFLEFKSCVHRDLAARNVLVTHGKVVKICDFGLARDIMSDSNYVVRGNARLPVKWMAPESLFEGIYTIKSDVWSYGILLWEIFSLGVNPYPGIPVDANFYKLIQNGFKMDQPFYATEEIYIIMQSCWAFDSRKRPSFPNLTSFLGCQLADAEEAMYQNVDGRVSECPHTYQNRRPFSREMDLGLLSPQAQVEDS
Test: HTRF binding assay of FL to FLT3 (TR-FRET, SNAP-FLT3 transfected HEK293T cells)
Details: HEK293T cells transfected with SNAP-FLT3, labelled with SNAP-Lumi4-Tb; compounds 1 h at room temperature, then FL-d2 (0.5 nM), read after 20 h; 12 dilutions in triplicates, performed twice; read-out: Inhibition of FLT3 binding IC50, binding
Experimental: The binding of FL to FLT3 was measured by a Homologous Time-Resolved Fluorescence (HTRF) assay (Degorce et al., Current Chemical Genomics, 2009, 3, 22-32), which involves resonance energy transfer between a donor, Lumi4-Tb-donor-derivatized benzylguanine substrate (SNAP-Lumi4-Tb, excitation: 337 nm, emission: 630 nm, Cisbio, France), transfected in HEK cells, and an acceptor, red fluorescent FL (FL-d2, excitation: 620 nm, emission: 660 nm, Cisbio, France). When FL-d2 binds to the SNAP-Lumi4-Tb-tagged FLT3 receptor, the proximity of both fluorophores allows the time-resolved Förster resonance energy transfer (TR-FRET) signal to occur and the binding is measured as the ratio between the fluorescent emissions at 660 to 620 nm.
The detailed method is described in Rivat et al. (Nature Communications, 2018, 9 :1042). Briefly, HEK293T cells were transfected with a pCDNA3.1 SNAP-FLT3 plasmid by using Lipofectamine (Invitrogen), and were than labelled with SNAP-Lumi4-Tb. Plates containing attached transfected HEK293T cells were incubated with compounds of formula (I) for 1 h at room temperature. A series of 12 dilutions in triplicates was used for each compound and the experiment was performed twice. Then FL-d2 (0.5 nM) was added and the TR-FRET signal was read after 20 h incubation at room temperature with a HTRF-compatible reader (Envision, Perkin Elmer) allowing a donor excitation at 337 nm and a signal collection both at 615 nm and 665 nm (20 flashes, delay 50 µs, integration time 400 µs). Then HTRF ratio, obtained by dividing the acceptor signal (665 nm) by the donor signal (615 nm), was calculated at each concentration of test compounds. Non-specific binding was measured in the presence 50 µM of BDT001 (Rivat et al., ibid.). Concentration giving 50 % inhibition (IC50) were calculated by non-linear regression analysis for a one-site model, with variable slope (Prism®, Graphpad software, USA).

Structure (SMILES)	IC50 [nM]
Cc1cc(OCCN(C)C)ccc1C(=O)Nc1cccc2ncccc12 [(47), 4-(2-(dimethylamino)ethoxy)-2-methyl-N-(quinolin-5-yl)benzamide]	1700
CN(C)CCOc1ccc(C(=O)Nc2ccc(F)c3cnccc23)cc1 [(33), 4-[2-(dimethylamino)ethoxy]-N-(8-fluoroisoquinolin-5-yl)benzamide]	2300
CN1CCC(c2ccc(C(=O)Nc3cccc4cnccc34)cc2)CC1 [(7), N-(isoquinolin-5-yl)-4-(l-methylpiperidin-4-yl)benzamide]	800
CN1CCC(c2ccc(C(=O)Nc3cccc4cccnc34)cc2)CC1 [(9), 4-(1-methylpiperidin-4-yl)-N-(quinolin-8-yl)benzamide]	1500
CN(C)CCOc1ccc(C(=O)Nc2ccc(F)c3ccncc23)cc1 [(22), 4-(2-(dimethylamino)ethoxy)-N-(5-fluoroisoquinolin-8-yl)benzamide]	1900
Cc1cc(N2CCN(C)CC2)ccc1C(=O)Nc1cccc2cnccc12 [(45), N-(isoquinolin-5-yl)-2-methyl-4-(4-methylpiperazin-1-yl)benzamide]	1000
CN(C)CCOc1ccc(C(=O)Nc2ccc(F)c3ncccc23)cc1 [(20), 4-(2-(dimethylamino)ethoxy)-N-(8-fluoroquinolin-5-yl)benzamide]	6200
CN1CCC(c2ccc(C(=O)Nc3cccc4cnccc34)c(S(C)(=O)=O)c2)CC1 [(25), N-(isoquinolin-5-yl)-2-methanesulfonyl-4-(1-methylpiperidin-4-yl)benzamide]	2600
CN1CCC(c2ccc(C(=O)Nc3cccc4ccncc34)cc2)CC1 [(8), N-(isoquinolin-8-yl)-4-(1-methylpiperidin-4-yl)benzamide]	800
CN1CCC(c2ccc(C(=O)Nc3ccc(F)c4cnccc34)cc2)CC1 [(2), N-(8-fluoroisoquinolin-5-yl)-4-(1-methylpiperidin-4-yl)benzamide]	1400
CN(C)CCOc1ccc(C(=O)Nc2cccc3ccncc23)cc1C#N [(36), 3-cyano-4-(2-(dimethylamino)ethoxy)-N-(isoquinolin-8-yl)benzamide]	2500
CN1CCN(c2ccc(C(=O)Nc3ccc(F)c4nccnc34)cc2)CC1 [(37), N-(8-fluoroquinoxalin-5-yl)-4-(4-methylpiperazin-1-yl)benzamide]	700
CN1CCC(c2ccc(C(=O)Nc3cccc4cccnc34)c(C(F)(F)F)c2)CC1 [(18), 4-(1-methylpiperidin-4-yl)-N-(quinolin-8-yl)-2-(trifluoromethyl)benzamide]	1700
CN(C)CCOc1ccc(C(=O)Nc2cccc3ncccc23)c(C(F)(F)F)c1 [(49), 4-(2-(dimethylamino)ethoxy)-N-(quinolin-5-yl)-2-(trifluoromethyl)benzamide]	2400
CN1CCC(c2ccc(C(=O)Nc3ccc(F)c4ncccc34)cc2)CC1 [(4), N-(8-fluoroquinolin-5-yl)-4-(1-methylpiperidin-4-yl)benzamide]	5300
CN1CCC(c2ccc(C(=O)Nc3ccc(F)c4cccnc34)cc2)CC1 [(1), N-(5-fluoroquinolin-8-yl)-4-(1-methylpiperidin-4-yl)benzamide]	1200

Structure (SMILES)	IC50 [nM]
CN1CCN(c2ccc(C(=O)Nc3cccc4nccnc34)cc2)CC1 [(41), 4-(4-methylpiperazin-1-yl)-N-(quinoxalin-5-yl)benzamide]	600
CN1CCN(c2ccc(C(=O)Nc3ccc(F)c4cccnc34)cc2)CC1 [(42), N-(5-fluoroquinolin-8-yl)-4-(4-methylpiperazin-1-yl)benzamide]	3100
CN1CCN(c2ccc(C(=O)Nc3cccc4ccncc34)cc2)CC1 [(38), N-(isoquinolin-8-yl)-4-(4-methylpiperazin-1-yl)benzamide]	600
CN(C)CCOc1ccc(C(=O)Nc2ccc(F)c3cccnc23)cc1 [(26), 4-[2-(dimethylamino)ethoxy]-N-(5-fluoroquinolin-8-yl)benzamide]	1400
CN1CCC(c2ccc(C(=O)Nc3cccc4cnccc34)cc2C#N)CC1 [(21), 3-cyano-N-(isoquinolin-5-yl)-4-(1-methylpiperidin-4-yl)benzamide]	2000
CN1CCC(c2ccc(C(=O)Nc3cccc4nccnc34)cc2)CC1 [(28), 4-(1-methylpiperidin-4-yl)-N-(quinoxalin-5-yl)benzamide]	400
CN1CCC(c2ccc(C(=O)Nc3ccc(F)c4nccnc34)cc2)CC1 [(5), N-(8-fluoroquinoxalin-5-yl)-4-(1-methylpiperidin-4-yl)benzamide]	400
CN(C)CCOc1ccc(C(=O)Nc2ccc(F)c3nccnc23)cc1 [(23), 4-(2-(dimethylamino)ethoxy)-N-(8-fluoroquinoxalin-5-yl)benzamide]	500
CN1CCC(c2ccc(C(=O)Nc3cccc4ncccc34)cc2C(F)(F)F)CC1 [(27), 4-(1-methylpiperidin-4-yl)-N-(quinolin-5-yl)-3-(trifluoromethyl)benzamide]	3600
CN1CCN(c2ccc(C(=O)Nc3cccc4cnccc34)cc2)CC1 [(39), N-(isoquinolin-5-yl)-4-(4-methylpiperazin-1-yl)benzamide]	800
COc1ccc(NC(=O)c2ccc(OCCN(C)C)cc2)c2ccncc12 [(34)]	500
COc1cc(C(=O)Nc2cccc3ncccc23)ccc1N1CCN(C)CC1 [(50), 3-methoxy-4-(4-methylpiperazin-1-yl)-N-(quinolin-5-yl)benzamide]	2300
CN(C)CCOc1ccc(C(=O)Nc2cccc3cnccc23)cc1C(F)(F)F [(48), 4-(2-(dimethylamino)ethoxy)-N-(isoquinolin-5-yl)-3-(trifluoromethyl)benzamide]	1300
CN1CCN(c2ccc(C(=O)Nc3ccc(Cl)c4cnccc34)cc2)CC1 [(51), N-(8-chloroisoquinolin-5-yl)-4-(4-methylpiperazin-1-yl)benzamide hydrochloride]	1300
CN(C)CCOc1ccc(C(=O)Nc2cccc3cnccc23)cc1 [(14), 4-(2-(dimethylamino)ethoxy)-N-(isoquinolin-5-yl)benzamide]	900
